We go through 2 compounds from patent US20090306003A1, “Pesticide Delivery System” (priority 2006, published 2009).

A short description of this series: logP by chromatography, internally standardized with toluene and triphenylene. The format is physicochemical. The following applies: pH = 7. The procedure:
Microblends of herbicides were prepared using melts of mixtures of nonionic block copolymer and ethoxylated surfactants. Specifically, tristyrylphenol etoxylate (Soprophor BSU, Rhodia) was used in combination with Pluronic P123 (PEO20-PPO69-PEO20), The list of the herbicides and corresponding log P values (the log P values were measured according procedure described by Donovan and Pescatore, J. Chromatography A 2002, 952, 47-61) are presented in Table 24. All log P values were measured at pH 7, except for clethodim, measured at pH 2. First, a stock blend of Pluronic P123 and Soprophor BSU was prepared by melting together 50 g of Pluronic P123 with 50 g of Soprophor BSU at 70° C. to form a clear, homogeneous melt. Composition of the copolymer/surfactant mixture was P123:Soprophor=1:1 by weight. […] The mixtures were heated at 70° C. for 10 min and shaken.

As for `COP(=S)(OC)Oc1c(Cl)cc(C)cc1Cl` [Tolclofos-methyl], the “logP Average” value was found to be 4.418.
For Trisulfuron-methyl the value was 0.510.
